Values quoted from earlier work in patent US20020048551A1, “Delivery of biologically active material in a liposomal formulation for administration into the mouth” (priority 1999, published 2002).

Conditions: tablet absorbed through the buccal mucosa

## C[C@]12CCC(=O)C=C1CC[C@@H]1[C@@H]2CC[C@@]2(C)[C@H]1CC[C@]2(C)O [methyltestosterone]
  androgenic activity relative to oral tablets: twice
